From US11339178B2, “Inhibitors of microbial beta-glucuronidase enzymes and uses thereof” (The University of North Carolina at Chapel Hill, priority 2016, dated 2022)

target: E. coli (EcGUS) β-Glucuronidase (Escherichia coli, UniProt P05804); test: In vitro GUS inhibition, PNPG cleavage by purified E. coli GUS; format: biochemical; conditions: PNPG substrate, 37° C., 2 hours; NI = no inhibition
Description: To assess GUS inhibition, cleavage of p-nitrophenyl-β-D-glucuronide (PNPG) by purified E. coli GUS in the presence of inhibitor was measured. The reaction was performed in 96-well clear-bottom plates at a volume of 50 μL. Each reaction contained 5 μL of 100 nM E. coli GUS, 5 μL of inhibitor at various concentrations, 10 μL of 250 mM HEPES and 250 mM NaCl assay buffer, and 30 μL of 1.5 mM PNPG. The reaction was initiated by addition of PNPG and incubated at 37° C. for 2 hours. End point absorbance values at 410 nm were measured using a PHERAstar Plus microplate reader. The resulting data were fit with a four-parameter logistic log function in SigmaPlot 13.0 to determine IC50 values. IC50 was defined as the concentration of inhibitor that yields a 50% reduction in product formation at equilibrium.

Chain of E. coli (EcGUS) β-Glucuronidase (P05804 whole entry): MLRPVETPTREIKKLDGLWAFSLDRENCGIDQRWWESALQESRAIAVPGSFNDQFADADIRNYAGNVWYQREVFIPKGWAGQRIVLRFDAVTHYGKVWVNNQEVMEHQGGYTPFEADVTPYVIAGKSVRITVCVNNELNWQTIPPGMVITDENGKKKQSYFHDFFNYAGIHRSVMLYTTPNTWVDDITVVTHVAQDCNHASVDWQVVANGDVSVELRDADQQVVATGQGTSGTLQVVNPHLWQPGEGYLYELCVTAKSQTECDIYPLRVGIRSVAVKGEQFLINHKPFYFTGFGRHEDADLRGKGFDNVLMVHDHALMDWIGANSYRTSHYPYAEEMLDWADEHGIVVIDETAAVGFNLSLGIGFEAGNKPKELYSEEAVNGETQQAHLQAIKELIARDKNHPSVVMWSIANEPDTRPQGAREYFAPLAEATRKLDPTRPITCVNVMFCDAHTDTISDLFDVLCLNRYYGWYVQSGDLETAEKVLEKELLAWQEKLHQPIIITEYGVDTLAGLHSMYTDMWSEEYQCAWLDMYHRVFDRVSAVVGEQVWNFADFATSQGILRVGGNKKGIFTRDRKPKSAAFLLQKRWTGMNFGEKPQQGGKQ

Compound | IC50
CC1CN(c2nnnc3c2sc2nc(N4CCOCC4)c4c(c23)CCCC4)CCN1 (stereo not drawn) [Compound 44] | 5400 ± 600 nM
COc1nc(N2CCNCC2)c2sc3nc(-c4ccccc4)ccc3c2n1 [Compound 45] | 140 ± 8 nM
CC1(C)CCc2c(N3CCOCC3)nc3sc4c(N5CCNCC5)nnnc4c3c2C1 [Compound 49] | 620 ± 50 nM
CN(C)c1nc2sc3c(NCCN)nnnc3c2c2c1CCCC2 [Compound 50] | 12000 ± 2000 nM
c1nc(N2CCNCC2)c2sc3nc(N4CCOCC4)ccc3c2n1 [Compound 20] | 130 ± 10 nM
CNc1nc2sc3c(N4CCNCC4)nnnc3c2c2c1CCCC2 [Compound 16] | 70 ± 10 nM
Clc1nc(N2CCNCC2)c2sc3nc(N4CCOCC4)ccc3c2n1 [Compound 47] | 30 ± 3 nM
NN1CCN(c2nnnc3c2sc2nc(N4CCOCC4)c4c(c23)CCCC4)CC1 [Compound 3] | 5000 ± 500 nM
c1cnc2sc3c(N4CCNCC4)nnnc3c2c1 [Compound 46] | 1400 ± 40 nM
Clc1nc(N2CCNCC2)c2sc3nc(N4CCOCC4)c4c(c3c2n1)CCCC4 [Compound 51] | 900 ± 60 nM
Fc1ccc(CNc2nc3sc4c(N5CCNCC5)nnnc4c3c3c2CCCC3)cc1 [Compound 48] | 208 ± 3 nM
C[N+]1(C)CCN(c2nnnc3c2sc2nc(N4CCOCC4)c4c(c23)CCCC4)CC1 [Compound 52] | 6000 ± 100 nM

target: S. agalactiae (SaGUS) β-Glucuronidase (Streptococcus agalactiae serotype V, UniProt Q8E0N2); test: biochemical; conditions: not given
Sequence (Q8E0N2 whole entry): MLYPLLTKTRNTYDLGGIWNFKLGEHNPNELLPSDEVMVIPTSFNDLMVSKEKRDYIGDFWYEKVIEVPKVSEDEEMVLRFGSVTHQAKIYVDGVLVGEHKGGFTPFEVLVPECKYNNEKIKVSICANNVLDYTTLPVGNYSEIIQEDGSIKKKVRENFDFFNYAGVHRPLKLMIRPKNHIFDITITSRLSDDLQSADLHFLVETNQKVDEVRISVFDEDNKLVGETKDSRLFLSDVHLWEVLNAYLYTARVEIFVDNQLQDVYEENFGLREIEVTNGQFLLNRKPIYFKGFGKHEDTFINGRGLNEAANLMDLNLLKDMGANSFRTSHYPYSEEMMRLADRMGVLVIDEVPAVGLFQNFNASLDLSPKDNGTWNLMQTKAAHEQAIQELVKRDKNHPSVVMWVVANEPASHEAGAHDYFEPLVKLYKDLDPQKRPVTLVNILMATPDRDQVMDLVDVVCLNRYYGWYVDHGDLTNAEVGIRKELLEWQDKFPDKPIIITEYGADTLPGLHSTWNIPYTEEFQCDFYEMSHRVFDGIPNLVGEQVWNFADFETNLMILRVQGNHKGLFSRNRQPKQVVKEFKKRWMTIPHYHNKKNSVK

Compound | IC50
CNc1nc(N2CCNCC2)c2sc3nc(-c4ccccc4)ccc3c2n1 [Compound 24] | 480 ± 30 nM
C1CCc2c(c(N3CCNCC3)nc3sc4c(N5CCNCC5)nnnc4c23)C1 [Compound 12] | 63 ± 6 nM
c1ccc(-c2ccc3c(n2)sc2c(N4CCNCC4)ncnc23)cc1 [Compound 23] | 550 ± 70 nM
c1cc2c(nc1N1CCOCC1)sc1c(N3CCNCC3)nnnc12 [Compound 19] | 640 ± 60 nM
CN1CCN(c2nnnc3c2sc2nc(N4CCOCC4)c4c(c23)CCCC4)CC1 [Compound 2] | 22000 ± 7000 nM
C[C@H]1CN(c2nnnc3c2sc2nc(N4CCOCC4)c4c(c23)CCCC4)CCN1 [Compound 7] | 550 ± 60 nM
C1CCN(c2nc3sc4c(N5CCNCC5)nnnc4c3c3c2CCCC3)CC1 [Compound 13] | 180 ± 20 nM
c1nc(N2CCNCC2)c2sc3nc(N4CCOCC4)ccc3c2n1 [Compound 20] | 690 ± 30 nM
CNc1nc2sc3c(N4CCNCC4)nnnc3c2c2c1CCCC2 [Compound 16] | 39 ± 8 nM
C[C@@H]1CN(c2nnnc3c2sc2nc(N4CCOCC4)c4c(c23)CCCC4)CCN1 [Compound 6] | 550 ± 70 nM
C1CCc2c(c(N3CCOCC3)nc3sc4c(N5CC6CC5CN6)nnnc4c23)C1 (stereo not drawn) [Compound 5] | 2700 ± 500 nM
C1CCc2c(c(N3CCOCC3)nc3sc4c(NC5CCNCC5)nnnc4c23)C1 [Compound 4] | 70000 ± 20000 nM
C1CCc2c(c(N3CCOCC3)nc3sc4c(N5CCCNCC5)nnnc4c23)C1 [Compound 8] | 5000 ± 1000 nM
C1CCC(Nc2nc3sc4c(N5CCNCC5)nnnc4c3c3c2CCCC3)CC1 [Compound 14] | 320 ± 50 nM
CNc1ccc2c(n1)sc1c(N3CCNCC3)nc(NC)nc12 [Compound 29] | 550 ± 70 nM
NN1CCN(c2nnnc3c2sc2nc(N4CCOCC4)c4c(c23)CCCC4)CC1 [Compound 3] | 6700 ± 400 nM
c1cnc2sc3c(N4CCNCC4)ncnc3c2c1 [Compound 30] | 3000 ± 2000 nM
CNc1nc(N2CCNCC2)c2sc3nc(N4CCOCC4)ccc3c2n1 [Compound 21] | 340 ± 50 nM
CN(C)c1nc2sc3c(N4CCNCC4)nnnc3c2c2c1CCCC2 [Compound 15] | 62 ± 5 nM
c1ccc(-c2ccc3c(n2)sc2c(N4CCNCC4)nnnc23)cc1 [Compound 22] | 700 ± 100 nM
c1ccc(CNc2nc3sc4c(N5CCNCC5)nnnc4c3c3c2CCCC3)cc1 [Compound 17] | 90 ± 20 nM
C1CCc2c(c(N3CCOCC3)nc3sc4c(N5CCNCC5)nnnc4c23)C1 [Inh9, reference compound] | 117 nM
CN(C)c1nc(N2CCNCC2)c2sc3nc(-c4ccccc4)ccc3c2n1 [Compound 25] | 270 ± 30 nM
CNc1nc(N2CCNCC2)c2sc3nc(N(C)C)ccc3c2n1 [Compound 28] | 500 ± 200 nM
CN(C)c1ccc2c(n1)sc1c(N3CCNCC3)nnnc12 [Compound 27] | 1000 ± 200 nM
CNc1nc(N2CCNCC2)c2sc3ncccc3c2n1 [Compound 31] | 2000 ± 1500 nM
OCCNc1nc(N2CCNCC2)c2sc3nc(-c4ccccc4)ccc3c2n1 [Compound 26] | 490 ± 60 nM

target: C. perfringens (CpGUS) β-Glucuronidase (Clostridium perfringens, UniProt Q8XP19); test: biochemical; conditions: not given
Sequence (Q8XP19 whole entry, looked up): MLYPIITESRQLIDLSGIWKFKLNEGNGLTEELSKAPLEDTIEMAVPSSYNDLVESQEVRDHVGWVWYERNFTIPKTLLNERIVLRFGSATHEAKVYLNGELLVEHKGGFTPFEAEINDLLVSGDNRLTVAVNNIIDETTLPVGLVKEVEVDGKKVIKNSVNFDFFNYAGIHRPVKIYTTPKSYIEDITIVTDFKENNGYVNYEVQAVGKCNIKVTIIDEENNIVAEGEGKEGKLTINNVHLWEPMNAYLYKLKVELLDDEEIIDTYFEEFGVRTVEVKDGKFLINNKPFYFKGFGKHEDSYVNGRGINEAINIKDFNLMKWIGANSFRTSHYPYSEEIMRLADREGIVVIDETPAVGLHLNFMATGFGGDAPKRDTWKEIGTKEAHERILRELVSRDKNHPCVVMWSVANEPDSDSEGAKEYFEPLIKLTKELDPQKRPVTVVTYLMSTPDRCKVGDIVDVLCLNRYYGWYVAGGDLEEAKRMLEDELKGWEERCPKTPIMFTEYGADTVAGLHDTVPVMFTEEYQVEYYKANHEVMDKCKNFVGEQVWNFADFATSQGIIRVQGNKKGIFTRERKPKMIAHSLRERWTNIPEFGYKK

Compound | IC50
CNc1nc(N2CCNCC2)c2sc3nc(-c4ccccc4)ccc3c2n1 [Compound 24] | 450 ± 10 nM
C1CCc2c(c(N3CCNCC3)nc3sc4c(N5CCNCC5)nnnc4c23)C1 [Compound 12] | 120 ± 20 nM
c1ccc(-c2ccc3c(n2)sc2c(N4CCNCC4)ncnc23)cc1 [Compound 23] | 440 ± 40 nM
c1cc2c(nc1N1CCOCC1)sc1c(N3CCNCC3)nnnc12 [Compound 19] | 220 ± 20 nM
CN1CCN(c2nnnc3c2sc2nc(N4CCOCC4)c4c(c23)CCCC4)CC1 [Compound 2] | 14300 ± 300 nM
C[C@H]1CN(c2nnnc3c2sc2nc(N4CCOCC4)c4c(c23)CCCC4)CCN1 [Compound 7] | 4200 ± 300 nM
C1CCN(c2nc3sc4c(N5CCNCC5)nnnc4c3c3c2CCCC3)CC1 [Compound 13] | 350 ± 20 nM
c1nc(N2CCNCC2)c2sc3nc(N4CCOCC4)ccc3c2n1 [Compound 20] | 53 ± 4 nM
CNc1nc2sc3c(N4CCNCC4)nnnc3c2c2c1CCCC2 [Compound 16] | 180 ± 10 nM
C[C@@H]1CN(c2nnnc3c2sc2nc(N4CCOCC4)c4c(c23)CCCC4)CCN1 [Compound 6] | 3900 ± 100 nM
C1CCc2c(c(N3CCOCC3)nc3sc4c(N5CC6CC5CN6)nnnc4c23)C1 (stereo not drawn) [Compound 5] | 4500 ± 300 nM
C1CCc2c(c(N3CCOCC3)nc3sc4c(NC5CCNCC5)nnnc4c23)C1 [Compound 4] | 5700 ± 600 nM
C1CCc2c(c(N3CCOCC3)nc3sc4c(N5CCCNCC5)nnnc4c23)C1 [Compound 8] | 13700 ± 600 nM
C1CCC(Nc2nc3sc4c(N5CCNCC5)nnnc4c3c3c2CCCC3)CC1 [Compound 14] | 480 ± 10 nM
CNc1ccc2c(n1)sc1c(N3CCNCC3)nc(NC)nc12 [Compound 29] | 660 ± 90 nM
NN1CCN(c2nnnc3c2sc2nc(N4CCOCC4)c4c(c23)CCCC4)CC1 [Compound 3] | 4500 ± 200 nM
c1cnc2sc3c(N4CCNCC4)ncnc3c2c1 [Compound 30] | 577 ± 9 nM
CNc1nc(N2CCNCC2)c2sc3nc(N4CCOCC4)ccc3c2n1 [Compound 21] | 100 ± 10 nM
CN(C)c1nc2sc3c(N4CCNCC4)nnnc3c2c2c1CCCC2 [Compound 15] | 180 ± 6 nM
c1ccc(-c2ccc3c(n2)sc2c(N4CCNCC4)nnnc23)cc1 [Compound 22] | 230 ± 30 nM
c1ccc(CNc2nc3sc4c(N5CCNCC5)nnnc4c3c3c2CCCC3)cc1 [Compound 17] | 290 ± 10 nM
C1CCc2c(c(N3CCOCC3)nc3sc4c(N5CCNCC5)nnnc4c23)C1 [Inh9, reference compound] | 154 nM
CN(C)c1nc(N2CCNCC2)c2sc3nc(-c4ccccc4)ccc3c2n1 [Compound 25] | 160 ± 20 nM
CNc1nc(N2CCNCC2)c2sc3nc(N(C)C)ccc3c2n1 [Compound 28] | 280 ± 50 nM
CN(C)c1ccc2c(n1)sc1c(N3CCNCC3)nnnc12 [Compound 27] | 220 ± 20 nM
CNc1nc(N2CCNCC2)c2sc3ncccc3c2n1 [Compound 31] | 900 ± 300 nM
OCCNc1nc(N2CCNCC2)c2sc3nc(-c4ccccc4)ccc3c2n1 [Compound 26] | 410 ± 40 nM
